Test results published in article PMC10975611, “Heterocycles 52: The Drug-Likeness Analysis of Anti-Inflammatory Thiazolo[3,2-b][1,2,4]triazole and Imidazo[2,1-b][1,3,4]thiadiazole Derivatives” (Pharmaceuticals, 2024).

What was measured:
[1] = design: method as in doi:10.31925/farmacia.2018.5.20, PMID 30248903; conditions: acute inflammation, compared to diclofenac; cited from earlier work
[2] = design: method as in doi:10.31925/farmacia.2018.5.20, PMID 30248903; conditions: in vivo; cited from earlier work
[3] = Lipophilicity by reversed-phase thin-layer chromatography (RP-TLC), isopropanol-water mobile phase; assay type: physicochemical; conditions: for mRM (arithmetic mean of the experimental retention factors RM): RP-18F254s plates, isopropanol 70–90% in water; for RM0 (relative lipophilicity, RM extrapolated to pure water): Soczewinski Wachtmeister equation, isopropanol 70–90%; for lipophilicity (in words): chromatographic lipophilicity profile / lipophilicity descriptors; for PC1(RM): score of first principal component of RM values at isopropanol 70–90%; for b (slope): slope of RM versus isopropanol concentration; for φ0 (chromatographic hydrophobic index): φ0 = RM0/b
Description: Lipophilicity was assessed by RP-TLC, using RP-[…] standard silica gel plates (20 × 10 cm) as the stationary phase. An isopropanol:water binary mixture was used as the mobile phase, with different isopropanol concentrations 70%, 75%, 80%, 85%, 90% for thiazolo[3,2-b][1,2,4]triazole (1a–16a) and imidazo[2,1-b][1,3,4]thiadiazole (1b–16b) compounds.
The standard solutions (1 mg/mL) used to investigate the lipophilicity of the synthesized compounds were prepared in dichloromethane (1a–16a compounds) and dimethylsulfoxide (1b–16b compounds). From the obtained solutions, 2 µL was applied manually on the chromatographic plates, at 15 mm from the baseline and 5 mm from the edges of the plate at a spot distance of 12 mm. This procedure was repeated three times. The chromatographic plate upward elution was performed in a chromatographic chamber previously saturated for 30 min with mobile phase, at normal atmospheric pressure and room temperature. The migration distance of the eluent was 80 mm. The chromatographic plates were visually inspected under UV light at λ = 254 nm to identify the compounds. In order to minimize possible experimental errors, three measurements were performed for each mobile phase. The retention factors (Rf) were calculated as the average of three determinations in each case.
Based on the Rf values, a variety of parameters can be determined to estimate the lipophilicity of the compounds. The isocratic retention factor (RM) was determined using the Bate–Smith and Westall equation [34]:RM = log(1/Rf − 1) where Rf = x/y and x = the migration distance of the compound, and y = the migration distance of the solvent front.
There is usually a linear correlation between the RM values and the concentration of the organic component in the mobile phase. For a better estimation of lipophilicity, RM0 was determined as the extrapolated retention factor, considering pure water as the mobile phase (Soczewinski Wachtmeister equation):RM = RM0 + bC where b is the slope of the curve, which indicates the rate at which the solubility of the compound increases in the mobile phase, C is the concentration of the isopropanol in the mobile phase, and RM0 is the RM of the compound when the concentration of isopropanol is zero (extrapolated value).
To estimate the lipophilicity of the compounds, φ0, representing the chromatographic hydrophobicity index, was also determined. It corresponds to the percentage (by volume) of the organic component in the mobile phase and can be determined according to the following formula:φ0 = RM0/b
In order to assess the lipophilicity of compounds, other more relevant lipophilicity parameters have been used, such as the arithmetic mean of the experimental retention factors (mRM), and the score associated with the first principal component (PC1(RM)) obtained by applying principal component analysis (PCA) to the retention parameters RM [35, 36]. The determination of these parameters eliminates the errors that appear during the extrapolation procedure (when determining RM0) so that the results are more accurate.

| SMILES | mRM (arithmetic mean of the experimental retention factors RM) [3] | RM0 (relative lipophilicity, RM extrapolated to pure water) [3] | lipophilicity (in words) [3] | PC1(RM) [3] | b (slope) [3] | φ0 (chromatographic hydrophobic index) [3] | in vivo anti-inflammatory activity [1] | pain threshold [2] |
| --- | --- | --- | --- | --- | --- | --- | --- | --- |
| COc1ccc(-c2cn3nc(-c4ccccc4)sc3n2)cc1 [Compound 4b] | 0.071 | 1.805 | low lipophilicity | −0.362 | −0.022 | 83.16 | significantly reduced acute inflammation in vivo | increased pain threshold |
| Clc1ccc(-c2nn3cc(-c4ccccc4)nc3s2)cc1 [Compound 5b] | 0.144 | 2.270 | – | −0.624 | −0.027 | 85.32 | significantly reduced acute inflammation in vivo | increased pain threshold |
| COc1ccc(-c2nn3cc(-c4ccccc4)nc3s2)cc1 [Compound 9b] | 0.138 | 1.900 | low lipophilicity | −0.596 | −0.022 | 85.59 | significantly reduced acute inflammation in vivo | increased pain threshold |
| COc1ccc(-c2nc3scc(-c4ccc(OC)cc4)n3n2)cc1 [Compound 12a] | −0.013 | 1.696 | low lipophilicity | −0.058 | −0.021 | 79.62 | significantly reduced acute inflammation in vivo | increased pain threshold |
| COc1ccc(-c2cn3nc(-c4ccc(OC)cc4)sc3n2)cc1 [Compound 12b] | 0.097 | 1.460 | low lipophilicity | −0.450 | −0.017 | 85.89 | significantly reduced acute inflammation in vivo | increased pain threshold |

The next lines start with results.

| mRM (arithmetic mean of the experimental retention factors RM) [3] | RM0 (relative lipophilicity, RM extrapolated to pure water) [3] | lipophilicity (in words) [3] | PC1(RM) [3] | b (slope) [3] | φ0 (chromatographic hydrophobic index) [3] | SMILES | in vivo anti-inflammatory activity [1] | pain threshold [2] |
| --- | --- | --- | --- | --- | --- | --- | --- | --- |
| 0.031 | 1.612 | low lipophilicity | −0.216 | −0.020 | 81.40 | COc1ccc(-c2csc3nc(-c4ccccc4)nn23)cc1 [Compound 4a] | significantly reduced acute inflammation in vivo | increased pain threshold |
| 0.006 | 1.705 | low lipophilicity | −0.127 | −0.021 | 80.40 | COc1ccc(-c2nc3scc(-c4ccccc4)n3n2)cc1 [Compound 9a] | significantly reduced acute inflammation in vivo | increased pain threshold |
| −0.555 | 1.472 | the least lipophilic compounds | 1.875 | −0.026 | 57.72 | NS(=O)(=O)c1ccc(-c2nc3scc(-c4ccccc4)n3n2)cc1 [Compound 13a] | significantly reduced acute inflammation in vivo | increased pain threshold |
| −0.464 | 0.988 | the least lipophilic compounds | 1.554 | −0.018 | 53.99 | NS(=O)(=O)c1ccc(-c2nn3cc(-c4ccccc4)nc3s2)cc1 [Compound 13b] | significantly reduced acute inflammation in vivo | increased pain threshold |
